The source of these data is US12465648B2, “Heterobifunctional compounds as degraders of HPK1” (ICAHN SCHOOL OF MEDICINE AT MOUNT SINAI, priority 2019, dated 2025).

One test concerns Jurkat T cells. Description: IL-2 production by Jurkat cells on CD3XCD28 stimulation (IL-2 ELISA). The conditions noted are these: wider ranges of compound concentrations. It is filed as cell-based, human. On the procedure:
(§1) EXAMPLE 348. Several compounds according to the present invention employing the indolin-2-one HPK1 binding base, (which henceforth shall be referred to as the HC58 series, the HC65 series and the HC75 series) were assessed on their abilities to degrade HPK1 and produce an elevated IL-2 response profile upon stimulation by anti-CD3- and anti-CD28-mAb-mediated (CD3XCD28) stimulation (FIGS. 1-4). The elevated IL-2 response profile induced by TCR engagement after exposure to HC58 series of HPK1 degraders is shown in FIG. 1. […] A select sub-set of the lead HPK1 degraders from the HC58 series were further characterized to determine whether they could degrade primary mouse T cells.
EXAMPLE 351. […] Furthermore, compound HC58-78 and HC90-50 were also assessed for their abilities to enhance the CD3XCD28-induced IL-2 response by primary human PBMC (FIG. 10).
For the synthesis of intermediates and examples (1-89) below, HPLC spectra for all compounds were acquired using an Agilent 1200 Series system with DAD detector. […] Clone E6-1 cells is a preferred cellular platform for studying T cell activation in response to T cell receptor engagement because it produces the cytokine IL-2, which could be used as proxy readout for the level of T cell activation. […]
On the technique in general: ELISA stands for enzyme-linked immunosorbent assay.

The target of test [1] is T1, HPK1 (Homo sapiens, UniProt Q92918).
T1 construct: endogenous in cells; host or cells: Jurkat T cells
Briefly: Western blot analysis of endogenous HPK1 level in Jurkat T cells. The following applies: for reducing HPK1 protein levels: characterization of exemplary degraders (FIGS. 1-14). Type of test: cell-based. For orientation: Immunoblotting shows a protein as a band on a membrane.

The next test has as its system primary murine T cells. Description: IL-2 production by primary murine T cells. Type of test: cell-based, mouse. How it is done: as §1
For test [2], the system named is CD4+ primary murine T cells. Briefly: CD28-independent IL-2 production by CD4+ primary murine T cells (IL-2 ELISA). Type of test: cell-based, mouse. The following applies: 500 nM, plate-bound anti-CD3 mAb 5 μg/mL, varying soluble anti-CD28 mAb. How it is done:
EXAMPLE 34. I was observed that HPK1^−/− T cells, unlike their wild type counterparts, could readily produce IL-2 in response to CD3 □ crosslinking alone (data not shown). To assess whether HPK1 degraders could confer the same ability to produce IL-2 in a CD28-independent manner, CD4^+ primary murine T cells prepared as described in FIG. 5 were treated with 500 nM of HC58-75 HPK1 degrader or DMSO or Pomalidomide as controls. Their abilities to produce IL-2 in response a fixed concentration of plate-bound anti-CD3[…] mAb (5 μg/mL) in conjunction with varying soluble concentration of anti-CD28 mAb was then assessed.

Another test has as its system CD4+ T cells. Briefly: CD28-independent IL-2 production by CD4+ T cells. Type of test: cell-based. The conditions noted are these: fixed concentration of plate-bound antibody, varying concentrations of soluble anti-CD28 mAb (FIG. 6).
A further test relates to human PBMCs. Briefly: Intracellular IFNγ and TNFα staining of human PBMC (FACS). Type of test: cell-based. The conditions noted are these: in combination with blinatumomab. The text has this:
EXAMPLE 355. One of the mechanisms employed by PBMC to kill their target cells is by releasing IFNγ and TNFα production. These inflammatory cytokines are known have potent cytolytic effects on cancer cells. […] Mediated PBMC killing of the Raji cells is most evident at PBMC:Raji ratio of 5:1 (FIG. 13).
To determine the number of CD19^+ Raji cells killed by human PBMC that were activated by the Blinatumomab-mediated activation, we used CountBright cell counting beads to estimate the number of cells remained after 72 hours of co-culturing of PBMC and Raji. As for the intracellular staining of the TNFα and the IFNγ, the standard para-formaldehyde-based “fix and perm” procedure was used in order to quantitate the amount of intracellular cytokine trapped inside the cells by brefeldin A. FACS analysis of stained cells is performed by BD's LSR II FACS.

The target in test [3] is T2, HPK1 (Mus musculus, UniProt P70218).
T2 construct: HPK1 degraders could effectively degrade endogenous HPK1 in murine T cells; endogenous in cells; host or cells: primary mouse T cells
T2 sequence (P70218 1-827): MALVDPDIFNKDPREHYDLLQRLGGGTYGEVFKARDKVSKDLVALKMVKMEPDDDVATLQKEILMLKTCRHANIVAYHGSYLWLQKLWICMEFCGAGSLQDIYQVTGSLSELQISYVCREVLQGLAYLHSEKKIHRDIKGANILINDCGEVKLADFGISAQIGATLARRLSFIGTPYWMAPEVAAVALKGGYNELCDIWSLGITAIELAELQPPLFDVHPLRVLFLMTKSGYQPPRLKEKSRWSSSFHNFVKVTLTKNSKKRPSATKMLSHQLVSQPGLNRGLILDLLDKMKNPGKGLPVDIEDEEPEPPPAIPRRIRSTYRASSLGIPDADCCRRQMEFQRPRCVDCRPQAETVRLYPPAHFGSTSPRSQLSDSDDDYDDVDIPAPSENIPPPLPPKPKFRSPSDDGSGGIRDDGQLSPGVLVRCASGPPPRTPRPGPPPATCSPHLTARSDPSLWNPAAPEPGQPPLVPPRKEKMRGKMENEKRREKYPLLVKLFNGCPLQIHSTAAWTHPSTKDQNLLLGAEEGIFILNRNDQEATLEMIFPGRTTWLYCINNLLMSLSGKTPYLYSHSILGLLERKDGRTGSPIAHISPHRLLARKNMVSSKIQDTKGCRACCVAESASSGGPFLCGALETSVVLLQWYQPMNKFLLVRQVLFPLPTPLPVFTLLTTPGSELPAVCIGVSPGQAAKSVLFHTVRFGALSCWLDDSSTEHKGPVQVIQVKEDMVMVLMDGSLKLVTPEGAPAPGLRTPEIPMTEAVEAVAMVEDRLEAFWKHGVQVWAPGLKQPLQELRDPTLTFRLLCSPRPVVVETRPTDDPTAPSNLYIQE
Briefly: HPK1 degradation in primary mouse T cells. Type of test: cell-based. The conditions noted are these: 300 nM. On the procedure:
as §1
EXAMPLE 353. HPK1 is expressed in all hematopoietic cells examined to date, including T cells, B cells, dendritic cells and neutrophils. Because the breath of therapeutic approaches might involve the use of Chimeric Antigen Receptor (CAR) T cells, dendritic cells, TCR transgenic T cells and Tumor Infiltrating Lymphocytes (TILs), selected HPK1 degraders were evaluated to determine whether they could degrade HPK1 effectively in some of these cell types. […] Potent degradation of HPK1 by HPK1 degraders was also observed in the human DC1 dendritic cells.

T1 sequence (Q92918 whole entry): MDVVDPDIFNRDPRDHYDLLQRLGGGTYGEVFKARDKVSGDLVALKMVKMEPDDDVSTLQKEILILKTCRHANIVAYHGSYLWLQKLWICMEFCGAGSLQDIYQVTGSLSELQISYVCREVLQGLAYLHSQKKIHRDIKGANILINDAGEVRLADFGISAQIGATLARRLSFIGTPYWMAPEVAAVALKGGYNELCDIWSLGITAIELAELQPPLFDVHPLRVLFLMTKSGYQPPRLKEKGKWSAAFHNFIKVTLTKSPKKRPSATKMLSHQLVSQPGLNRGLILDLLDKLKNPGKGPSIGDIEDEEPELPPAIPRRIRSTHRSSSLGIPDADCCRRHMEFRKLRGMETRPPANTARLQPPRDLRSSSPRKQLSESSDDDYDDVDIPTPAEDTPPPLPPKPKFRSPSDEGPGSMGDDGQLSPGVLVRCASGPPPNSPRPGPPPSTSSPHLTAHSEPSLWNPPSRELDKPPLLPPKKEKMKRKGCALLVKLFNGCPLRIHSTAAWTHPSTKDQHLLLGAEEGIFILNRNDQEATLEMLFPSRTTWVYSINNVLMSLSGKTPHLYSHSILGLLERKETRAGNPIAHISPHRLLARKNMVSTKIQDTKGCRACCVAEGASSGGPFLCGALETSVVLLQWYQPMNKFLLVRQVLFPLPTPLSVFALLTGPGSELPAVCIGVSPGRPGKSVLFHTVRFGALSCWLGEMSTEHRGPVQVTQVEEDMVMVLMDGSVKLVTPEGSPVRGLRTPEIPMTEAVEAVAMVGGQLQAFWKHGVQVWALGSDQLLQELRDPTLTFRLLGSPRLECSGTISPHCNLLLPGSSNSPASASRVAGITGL

Take `COc1cccc(F)c1-c1ncc2[nH]nc(-c3ccc(N4CCN(C(=O)CCCNc5cccc6c5C(=O)N(C5CCC(=O)NC5=O)C6=O)CC4)cc3)c2n1` (stereo not shown) [HC90-51, 2-(2,6-dioxopiperidin-3-yl)-4-((4-(4-(4-(5-(2-fluoro-6-methoxyphenyl)-1H-pyrazolo[4,3-d]pyrimidin-3-yl)phenyl)piperazin-1-yl)-4-oxobutyl)amino)isoindoline-1,3-dione]: the “IL-2 response profile, rank within the HC90 series” value in the test on Jurkat T cells is listed as “top two compounds from the HC90 series”. Moreover, the “reducing HPK1 protein levels” value at HPK1 [1] is “especially effective in reducing HPK1 protein levels”.
As to `Cc1[nH]c(/C=C2\C(=O)Nc3ccc(F)cc32)c(C)c1C(=O)NCCCN1CCN(CC(=O)NCCCCCNc2cccc3c2C(=O)N(C2CCC(=O)NC2=O)C3=O)CC1` (stereo not shown) [HC58-75, (Z)—N-(3-(4-(2-((5-((2-(2,6-dioxopiperidin-3-yl)-1,3-dioxoisoindolin-4-yl)amino)pentyl)amino)-2-oxoethyl)piperazin-1-yl)propyl)-5-((5-fluoro-2-oxoindolin-3-ylidene)methyl)-2,4-dimethyl-1H-pyrrole-3-carboxamide], the “IL-2 production compared with the DMSO-treated counterpart” value in the test on primary murine T cells was “produced more IL-2 than the DMSO-treated counterpart”. The “IL-2 production without CD28 co-receptor engagement” value in test [2] is reported as “could produce IL-2 without the help of CD28 co-receptor engagement”. In addition, the “CD28-independent IL-2 production” value in the test with CD4+ T cells is “CD28-independent IL-2 production”. Further, on HPK1 [1] (Jurkat T cells, multiple day post exposure (FIG. 3)), the “endogenous level of HPK1” value was “could reduce the endogenous level of HPK1”. In addition, at HPK1 [1], the “reducing HPK1 protein levels” value is “especially effective in reducing HPK1 protein levels”.
As to `Cc1[nH]c(/C=C2\C(=O)Nc3ccc(F)cc32)c(C)c1C(=O)NCCCN1CCN(C(=O)CCCCNc2cccc3c2C(=O)N(C2CCC(=O)NC2=O)C3=O)CC1` (stereo not shown) [HC58-38, (Z)—N-(3-(4-(5-((2-(2,6-dioxopiperidin-3-yl)-1,3-dioxoisoindolin-4-yl)amino)pentanoyl)piperazin-1-yl)propyl)-5-((5-fluoro-2-oxoindolin-3-ylidene)methyl)-2,4-dimethyl-1H-pyrrole-3-carboxamide], the “reducing HPK1 protein levels” value on HPK1 [1] was “especially effective in reducing HPK1 protein levels”.
`COc1cccc(F)c1-c1ncc2[nH]nc(-c3ccc(N4CCN(C(=O)CCNc5cccc6c5C(=O)N(C5CCC(=O)NC5=O)C6=O)CC4)cc3)c2n1` (stereo not shown) [HC90-50, 2-(2,6-dioxopiperidin-3-yl)-4-((3-(4-(4-(5-(2-fluoro-6-methoxyphenyl)-1H-pyrazolo[4,3-d]pyrimidin-3-yl)phenyl)piperazin-1-yl)-3-oxopropyl)amino)isoindoline-1,3-dione]: the “percentage of human PBMCs that express high level of IFNγ and TNFα” value with human PBMCs is “significantly increased”. For the same compound, the “IL-2 response profile, rank within the HC90 series” value in the test on Jurkat T cells is recorded as “top two compounds from the HC90 series”. On HPK1 [1], the “reducing HPK1 protein levels” value is “especially effective in reducing HPK1 protein levels”.
Regarding `Cc1[nH]c(/C=C2\C(=O)Nc3ccc(F)cc32)c(C)c1C(=O)NCCCN1CCN(CC(=O)NCCCCCCNc2cccc3c2C(=O)N(C2CCC(=O)NC2=O)C3=O)CC1` (stereo not shown) [HC58-76, (Z)—N-(3-(4-(2-((6-((2-(2,6-dioxopiperidin-3-yl)-1,3-dioxoisoindolin-4-yl)amino)hexyl)amino)-2-oxoethyl)piperazin-1-yl)propyl)-5-((5-fluoro-2-oxoindolin-3-ylidene)methyl)-2,4-dimethyl-1H-pyrrole-3-carboxamide], the “reducing HPK1 protein levels” value on HPK1 [1] was “especially effective in reducing HPK1 protein levels”. Besides, at HPK1 [3], the “degradation of HPK1 protein in primary T cells compared with Jurkat T cells” value is “could degrade more HPK1 protein in primary T cells than in Jurkat T cells”.
